Data on 24 compounds can be found in ChEMBL document CHEMBL5584339, “Design, Synthesis, and Evaluation of the Antitubercular Activity of 5-Phenyl Substituted-5, 6-dihydropyrido[2, 3-d]pyrimidine-4, 7(3H, 8H)-dione Compounds” (J Med Chem, 2024).

In data set [1] the test system is Mycobacterium tuberculosis. As to the kind of experiment: Antitubercular activity against Mycobacterium tuberculosis H37Rv incubated for 7 days by alamar blue assay. To be noted: 168 h, time 7 day. The format is functional. On the technique in general: Resazurin is reduced to fluorescent resorufin, in cell work by metabolically active cells.
Data set [2] in a line: Selectivity index, ratio of IC50 for african green monkey Vero cells to IC50 for Mycobacterium tuberculosis H37Rv. The format is toxicity. To be noted: read-out: Ratio IC50.
A short description of data set [3]: Cytotoxicity against african green monkey Vero cells incubated for 48 hrs by CCK8 assay. The format is toxicity, cell-based, Chlorocebus sabaeus. A general note: Tetrazolium dyes change colour on reduction, which living cells bring about.
A short description of data set [4]: Cytotoxicity against HK-2 cells incubated for 48 hrs by CCK8 assay. The format is toxicity, cell-based. To be noted: human.
The nature of data set [5]: Metabolic stability in mouse liver microsomes assessed as substrate remaining at 2 uM preincubated for 60 mins followed by NADPH addition and measured upto 60 mins by LC-MS analysis. To be noted: time < 120 min, read-out: Stability. The format is ADME, Microsome. (In general: Liver microsomes are vesicles of endoplasmic reticulum, rich in cytochrome P450 enzymes.)
Data set [6] can be described thus: Metabolic stability in human liver microsomes assessed as substrate remaining at 2 uM preincubated for 60 mins followed by NADPH addition and measured upto 60 mins by LC-MS analysis. It counts as ADME, Microsome. To be noted: time < 120 min, read-out: Stability.
A short description of data set [7]: Metabolic stability in mouse liver microsomes assessed as intrinsic clearance per mg protein at 2 uM preincubated for 60 mins followed by NADPH addition and measured upto 60 mins by LC-MS analysis. The format is ADME, Microsome. To be noted: time < 120 min, read-out: CLH.
Data set [8] in a line: Metabolic stability in human liver microsomes assessed as half-life at 2 uM preincubated for 60 mins followed by NADPH addition and measured upto 60 mins by LC-MS analysis. The format is ADME, Microsome. To be noted: time < 120 min.
Data set [9] in a line: Metabolic stability in mouse liver microsomes assessed as half-life at 2 uM preincubated for 60 mins followed by NADPH addition and measured upto 60 mins by LC-MS analysis. It counts as ADME, Microsome. To be noted: time < 120 min.
Data set [10] can be described thus: Metabolic stability in human liver microsomes assessed as intrinsic clearance per mg protein at 2 uM preincubated for 60 mins followed by NADPH addition and measured upto 60 mins by LC-MS analysis. It counts as ADME, Microsome. To be noted: time < 120 min, read-out: CLH.

Molecules are shown by their SMILES. Converted amounts (≈) assume the structure as drawn.

Regarding `CCCCSc1nc2c(c(=O)[nH]1)C(c1ccc(OC)cc1)CC(=O)N2` (stereo not drawn), the minimal inhibitory concentration (MIC) in [1] amounted to 0.5 µg/mL (≈ 1.39 µM). Besides, the selectivity ratio in data set [2] is 93.1. This compound also returned an IC50 at 48 h in [3] of 46.3 µg/mL (≈ 129 µM).
On to `CCCS(=O)(=O)c1nc2c(c(=O)[nH]1)[C@H](c1ccc(OC)cc1[N+](=O)[O-])CC(=O)N2`, for which, in data set [1], the MIC is over 32 µg/mL.
Regarding `CCCSc1nc2c(c(=O)[nH]1)C(c1ccccc1)CC(=O)N2C` (stereo not drawn), in [1], the MIC was over 10 µg/mL. For the same compound, the selectivity ratio in [2] is under 5.2. The same compound returned a 50% inhibitory concentration (IC50) at 48 h in data set [3] of 52.5 µg/mL (≈ 159 µM).
As for `CCCSc1nc2c(c(=O)[nH]1)C(c1ccc(OC)cc1)CC(=O)N2` (racemic), the IC50 at 48 h in data set [4] is 24.8 µg/mL (≈ 71.7 µM); in data set [3] it was 14.5 µg/mL (≈ 42 µM). Also, the remaining at 1 h, 2 µM in data set [5] was determined as 87.6%; in [6], 83.4%. The compound also returned a minimum inhibitory concentration (MIC) in [1] of 0.16 µg/mL (≈ 0.463 µM). The microsomal CLint at 2 µM in [7] was found to be 2.48 µL/min/mg; in data set [10], 5.85 µL/min/mg. Further, the half-life at 2 µM in [8] was found to be 3.95 h; in data set [9] it was 9.33 h. In addition, in data set [2], the selectivity ratio amounted to 93.
Consider `CCC[S+]([O-])c1nc2c(c(=O)[nH]1)[C@H](c1ccc(OC)cc1[N+](=O)[O-])CC(=O)N2` (stereo partly drawn), for which, in data set [1], the minimal inhibitory concentration (MIC) is over 32 µg/mL.
Regarding `C=CCSc1nc2c(c(=O)[nH]1)C(c1ccc(OCC)cc1)CC(=O)N2` (stereo not drawn), the minimum inhibitory concentration (MIC) in [1] was determined as 1 µg/mL (≈ 2.8 µM). Further, the selectivity ratio in data set [2] was over 500. Moreover, the half-inhibitory concentration (IC50) at 48 h in data set [3] was over 100 µg/mL.
The compound `CCCSc1nc2c(c(=O)[nH]1)C(c1ccc(OC)cc1O)CC(=O)N2` (stereo not drawn) yielded a minimum inhibitory concentration (MIC) in data set [1] of 0.95 µg/mL (≈ 2.63 µM). For the same compound, the selectivity ratio in data set [2] was determined as 56.9. Inhibition in data set [3] was half-maximal at 54.1 µg/mL (≈ 150 µM) (IC50 at 48 h).
`CCCS(=O)(=O)c1nc2c(c(=O)[nH]1)[C@@H](c1ccc(OC)cc1)CC(=O)N2` returned a minimum inhibitory concentration (MIC) in data set [1] of over 32 µg/mL.
`COc1ccc(C2CC(=O)Nc3nc(SC(C)C)[nH]c(=O)c32)cc1` (stereo not drawn) returned a minimal inhibitory concentration (MIC) in [1] of 2.27 µg/mL (≈ 6.57 µM). For the same compound, the selectivity ratio in data set [2] is over 44.1. The 50% inhibitory concentration (IC50) at 48 h in [3] is over 100 µg/mL.
The like results for `C=CCSc1nc2c(c(=O)[nH]1)C(c1ccc(OC)cc1O)CC(=O)N2` (stereo not drawn) were, in that order, 0.99 µg/mL (≈ 2.75 µM), over 101 and over 100 µg/mL.
Consider `CCCS(=O)(=O)c1nc2c(c(=O)[nH]1)[C@@H](c1ccc(OC)cc1[N+](=O)[O-])CC(=O)N2`, for which the MIC in data set [1] is over 32 µg/mL.
Take `CCCOc1ccc(C2CC(=O)Nc3nc(SC)[nH]c(=O)c32)cc1` (stereo not drawn): the MIC in data set [1] was over 10 µg/mL. The selectivity ratio in data set [2] was under 5.4. For the same compound, the IC50 at 48 h in data set [3] was found to be 53.5 µg/mL (≈ 155 µM).
Compound `CCCSc1nc2c(c(=O)[nH]1)C(c1ccc(OC(C)C)cc1)CC(=O)N2` (stereo not drawn) had an MIC in data set [1] of 2.12 µg/mL (≈ 5.68 µM). Further, the selectivity ratio in [2] came to 11.7. The compound also yielded a half-maximal inhibitory concentration (IC50) at 48 h in data set [3] of 24.9 µg/mL (≈ 66.7 µM).
In the case of `CCCSc1nc2c(c(=O)[nH]1)C(c1ccc(OC)cc1)CC(=O)N2C` (stereo not drawn), the minimum inhibitory concentration (MIC) in [1] was over 10 µg/mL. The compound also returned a half-inhibitory concentration (IC50) at 48 h in data set [3] of 53.6 µg/mL (≈ 149 µM).
For `CCC[S+]([O-])c1nc2c(c(=O)[nH]1)[C@@H](c1ccc(OC)cc1[N+](=O)[O-])CC(=O)N2` (stereo partly drawn), in data set [1], the minimal inhibitory concentration (MIC) is over 32 µg/mL.
On to `CCCSc1nc2c(c(=O)[nH]1)C(c1ccc(OC)cc1[N+](=O)[O-])CC(=O)N2` (racemic), for which the IC50 at 48 h in [4] and in [3] was over 100 µg/mL throughout. The remaining at 1 h, 2 µM in [5] was 66.8%; in data set [6], 73.7%. The compound also came in with an MIC in data set [1] of 0.12 µg/mL (≈ 0.307 µM). Moreover, the microsomal CLint at 2 µM came out at 14.2 µL/min/mg in data set [7] and 11.2 µL/min/mg in data set [10]. For the same compound, the half-life at 2 µM amounted to 2.07 h in [8] and 1.62 h in data set [9]. Also, in data set [2], the selectivity ratio was over 833.
`CCCOc1ccc(C2CC(=O)Nc3nc(SCCC)[nH]c(=O)c32)c(O)c1` (stereo not drawn): 1.23 µg/mL (≈ 3.16 µM) was the least that counted as inhibitory in data set [1] (MIC). The selectivity ratio in data set [2] is 35.6. The same compound displayed an IC50 at 48 h in [3] of 43.9 µg/mL (≈ 113 µM).
Consider `CCC[S+]([O-])c1nc2c(c(=O)[nH]1)[C@@H](c1ccc(OC)cc1)CC(=O)N2` (stereo partly drawn), for which the MIC in data set [1] was over 32 µg/mL.
As to `C=CCSc1nc2c(c(=O)[nH]1)C(c1ccc(OCCC)cc1)CC(=O)N2` (stereo not drawn), the minimum inhibitory concentration (MIC) in [1] was 1.98 µg/mL (≈ 5.33 µM). In addition, the selectivity ratio in data set [2] was 2.31. This compound displayed an IC50 at 48 h in [3] of 4.57 µg/mL (≈ 12.3 µM).
The like results for `CCCSc1nc2c(c(=O)[nH]1)C(c1ccc(OC)c(O)c1)CC(=O)N2` (stereo not drawn) were, in that order, 1.22 µg/mL (≈ 3.38 µM), over 82.1 and over 100 µg/mL.
The like results for `CCCCSc1nc2c(c(=O)[nH]1)C(c1ccc(OC)c(O)c1)CC(=O)N2` (stereo not drawn) were, in that order, 3.19 µg/mL (≈ 8.5 µM), 12.6 and 40.1 µg/mL (≈ 107 µM).
In data set [1], `C=CCSc1nc2c(c(=O)[nH]1)C(c1ccc(OC)c(O)c1)CC(=O)N2` (stereo not drawn) displayed a minimal inhibitory concentration (MIC) of 2.19 µg/mL (≈ 6.09 µM). Besides, the selectivity ratio in data set [2] was over 45.7. In addition, the IC50 at 48 h in [3] is over 100 µg/mL.
For `NNC(=O)c1ccncc1` [ISONIAZID], in that order: 0.05 µg/mL (≈ 0.365 µM), over 2000 and over 100 µg/mL.
The like results for `CCCSc1nc2c(c(=O)[nH]1)C(c1ccc(OC)c(OC)c1)CC(=O)N2` (stereo not drawn) were, in that order, over 10 µg/mL, under 2 and 20.4 µg/mL (≈ 54.5 µM).

A word on the MIC: it is the smallest concentration in the dilution series that meets the test's criterion for growth inhibition. The IC50 is the concentration needed to halve the response being measured. The term half-life denotes how long it takes for the measured level to halve.
